Results reported in PMC7391767, “Molecular mechanisms underlying menthol binding and activation of TRPM8 ion channel” (Nature Communications, 2020).
Values joined by “and” are separate entries in the source; they are usually repeats but may differ in a detail not shown here. Identical values can stand only once. Like-named read-outs stand apart in the source and are kept apart here.

Assays:
Assay type in all cases: cell-based
wild-type TRPM8 [1] = molecular target: T1, wild-type TRPM8 (Mus musculus, UniProt Q8R4D5); test: open probability from noise analysis of macroscopic current and single-channel recordings; conditions: wild-type TRPM8; near saturating concentration (menthol 500 µM)
T1 construct: expressed in transfected cells; host or cells: HEK293T
T1 sequence (Q8R4D5 whole entry): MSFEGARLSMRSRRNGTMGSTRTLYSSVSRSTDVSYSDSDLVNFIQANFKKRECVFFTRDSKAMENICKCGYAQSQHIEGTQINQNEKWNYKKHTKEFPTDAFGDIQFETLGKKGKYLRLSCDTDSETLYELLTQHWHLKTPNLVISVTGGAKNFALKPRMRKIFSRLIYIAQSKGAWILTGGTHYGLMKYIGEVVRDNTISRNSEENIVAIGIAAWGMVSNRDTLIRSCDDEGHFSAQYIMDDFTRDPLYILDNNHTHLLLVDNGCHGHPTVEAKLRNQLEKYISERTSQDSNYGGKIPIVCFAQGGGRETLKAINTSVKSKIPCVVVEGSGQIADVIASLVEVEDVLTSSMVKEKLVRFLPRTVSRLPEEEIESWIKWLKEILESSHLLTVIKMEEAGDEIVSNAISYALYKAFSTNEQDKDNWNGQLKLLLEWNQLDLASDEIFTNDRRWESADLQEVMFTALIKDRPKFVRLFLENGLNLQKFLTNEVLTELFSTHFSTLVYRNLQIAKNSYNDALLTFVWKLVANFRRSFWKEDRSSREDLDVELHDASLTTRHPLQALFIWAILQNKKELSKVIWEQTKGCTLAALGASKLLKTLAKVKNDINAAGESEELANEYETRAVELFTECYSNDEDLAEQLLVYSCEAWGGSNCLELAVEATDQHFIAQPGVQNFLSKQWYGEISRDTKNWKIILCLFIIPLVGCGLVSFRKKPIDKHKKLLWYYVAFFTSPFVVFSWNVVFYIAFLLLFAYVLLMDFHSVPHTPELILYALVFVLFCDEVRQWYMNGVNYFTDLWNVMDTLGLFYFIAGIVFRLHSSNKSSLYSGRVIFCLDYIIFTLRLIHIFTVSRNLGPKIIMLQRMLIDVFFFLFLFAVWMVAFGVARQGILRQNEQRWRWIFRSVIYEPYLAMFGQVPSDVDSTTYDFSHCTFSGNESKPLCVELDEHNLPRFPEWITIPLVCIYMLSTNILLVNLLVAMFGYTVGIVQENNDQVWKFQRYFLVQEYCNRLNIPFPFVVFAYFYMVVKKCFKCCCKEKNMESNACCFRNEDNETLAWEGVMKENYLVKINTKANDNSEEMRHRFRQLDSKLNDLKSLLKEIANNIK
Method: (§1) Patch-clamp recordings were performed with a HEKA EPC10 amplifier controlled by PatchMaster software (HEKA). Whole-cell recordings were performed at ±80 mV. Patch pipettes were prepared from borosilicate glass and fire-polished to resistance of ~4 MΩ. For whole-cell recording, serial resistance was compensated by 60%. For single-channel recordings, patch pipettes were fire-polished to a higher resistance of 6-to-10 MΩ and then recorded in the inside-out configuration. To maximize the chance of obtaining a patch with only one channel, single-channel recordings were performed about 8 h after transfection. A solution with 130 mM NaCl, 10 mM glucose, 0.2 mM EDTA, and 3 mM HEPES (pH 7.2) was used in both bath and pipette for either whole-cell or single-channel recordings. Membrane potential was clamped at +80 mV for single-channel recordings. Current was sampled at 10 kHz and filtered at 2.9 kHz. All recordings were performed at room temperature (22 °C) with the maximum variation of 1 °C.
From single-channel recordings, the open probability (Po) was calculated after events detection with a hidden Markov approach in the software QuB[49] (http://www.qub.buffalo.edu/). A dead time of 0.32 ms was imposed. As a complementary approach, Po was also estimated from noise analysis[52] of whole-cell recordings. Briefly, the mean current amplitude (I), the squared deviations in current amplitude from the mean value (σ^2), and the single-channel current (i) were measured experimentally from a membrane patch of ion channels. Then the number of ion channels clamped in that patch (N) was determined as3 N=I^2/i⋅I−σ^2.
The maximum current when each of ion channel is at the open state with a Po of 1 is equal to i × N. Then the open probability was calculated as the ratio between the measured macroscopic current and the maximum current calculated by noise analysis. To estimate channel conductance, current amplitude was estimated from all-point histogram of single-channel recordings.

TRPM8 V775A = molecular target: T2, TRPM8 V775A (Mus musculus, UniProt Q8R4D5, V775A); test: whole-cell patch-clamp and thermodynamic mutant cycle analysis
T2 construct: expressed in transfected cells; host or cells: HEK293T
T2 sequence (Q8R4D5 whole entry V775A): as the sequence (Q8R4D5 whole entry) above, with V775A counted along it
Method: (§2) Murine TRPM8 was used in this study. Point mutations were made by Fast Mutagenesis Kit V2 (SBS Genetech). Primers used to generate point mutations are summarized in Supplementary Table 2. All mutations were confirmed by sequencing.
(§3) HEK293T cells purchased from Kunming Cell Bank, Kunming Institute of Zoology, Chinese Academy of Sciences (ATCC, CRL-3216) were cultured in Dulbecco’s modified Eagle’s medium supplemented with 20 mM L-glutamine and 10% fetal bovine serum. Cells were transiently transfected with cDNA constructs by Lipofectamine 3000 (Life Technologies) following the manufacturer’s protocol. Patch-clamp recordings were performed 1–2 days after transfection.
as §1
(§4) Ligands such as menthol and its analogs were perfused to membrane patch by a gravity-driven system (RSC-200, Bio-Logic). Bath and ligand solution were delivered through separate tubes to minimize the mixing of solutions. Patch pipette was placed in front of the perfusion tube outlet.
(§5) Data from whole-cell recordings were analyzed in Igor Pro version 6.1 (WaveMatrix). EC50 values were derived from fitting a Hill equation to the concentration–response relationship. Changes in EC50 by point mutation may be caused by either perturbation of ligand bind or channel gating or both. To distinguish these possibilities, dissociation constant (Kd) for ligand binding was estimated assuming the following gating scheme:1 C0↔KdC1↔LO, where L is the equilibrium constant for the final closed-to-open transition.
(§6) To perform thermodynamic cycle analysis, Kd values of four channel-ligand combinations (WT channel, menthol: Kd _1; Mutant channel, menthol: Kd _2; WT channel, menthol analog: Kd _3; Mutant channel, menthol analog: Kd _4) were determined separately. The strength of coupling was determined by the coupling energy (kT multiplied by LnΩ, where k is the Boltzmann constant and T is temperature in Kelvin). LnΩ was calculated by Eq. (2) as[51]2 LnΩ=LnKd_1⋅Kd_4/Kd_2⋅Kd_3.

TRPM8 F839A = molecular target: T3, TRPM8 F839A (Mus musculus, UniProt Q8R4D5, F839A); test: as above
T3 construct: expressed in transfected cells; host or cells: HEK293T
T3 sequence (Q8R4D5 whole entry F839A): as the sequence (Q8R4D5 whole entry) above, with F839A counted along it
Method: as §2, §3, §1, §4, §5, §6

TRPM8 L843V = molecular target: T4, TRPM8 L843V (Mus musculus, UniProt Q8R4D5, L843V); test: as above
T4 construct: expressed in transfected cells; host or cells: HEK293T
T4 sequence (Q8R4D5 whole entry L843V): as the sequence (Q8R4D5 whole entry) above, with L843V counted along it
Method: as §2, §3, §1, §4, §5, §6

TRPM8 I846V = molecular target: T5, TRPM8 I846V (Mus musculus, UniProt Q8R4D5, I846V); test: as above
T5 construct: expressed in transfected cells; host or cells: HEK293T
T5 sequence (Q8R4D5 whole entry I846V): as the sequence (Q8R4D5 whole entry) above, with I846V counted along it
Method: as §2, §3, §1, §4, §5, §6

TRPM8 L843I = molecular target: T6, TRPM8 L843I (Mus musculus, UniProt Q8R4D5, L843I); test: as above
T6 construct: expressed in transfected cells; host or cells: HEK293T
T6 sequence (Q8R4D5 whole entry L843I): as the sequence (Q8R4D5 whole entry) above, with L843I counted along it
Method: as §2, §3, §1, §4, §5, §6

TRPM8 Y745F = molecular target: T7, TRPM8 Y745F (Mus musculus, UniProt Q8R4D5, Y745F); test: as above
T7 construct: expressed in transfected cells; host or cells: HEK293T
T7 sequence (Q8R4D5 whole entry Y745F): as the sequence (Q8R4D5 whole entry) above, with Y745F counted along it
Method: as §2, §3, §1, §4, §5, §6

TRPM8 L843A = molecular target: T8, TRPM8 L843A (Mus musculus, UniProt Q8R4D5, L843A); test: as above
T8 construct: expressed in transfected cells; host or cells: HEK293T
T8 sequence (Q8R4D5 whole entry L843A): as the sequence (Q8R4D5 whole entry) above, with L843A counted along it
Method: as §2, §3, §1, §4, §5, §6

wild-type TRPM8 [2] = molecular target: T1, wild-type TRPM8; test: whole-cell patch-clamp recording of ligand activation; conditions: WT
Method: Murine TRPM8 was used in this study. Point mutations were made by Fast Mutagenesis Kit V2 (SBS Genetech). Primers used to generate point mutations are summarized in Supplementary Table 2.
Cells were transiently transfected with cDNA constructs by Lipofectamine 3000 (Life Technologies) following the manufacturer’s protocol. Patch-clamp recordings were performed 1–2 days after transfection.
as §1, §4
as §5, with “Changes in EC50 by point mutation may be caused by either perturbation of ligand bind or channel gating or both.” left out

[3] = mutant cycle menthol vs labelled analog

- maximum open probability (Po max) (wild-type TRPM8 [1]): much reduced
- Ratio X2 (Kd menthol / Kd labelled analog) (TRPM8 V775A): 3.60
- Omega(X1/X2) (TRPM8 V775A; menthol vs labelled analog): 0.43
- Coupling Energy (TRPM8 V775A; [3]): 0.86 kT
- Ratio X2 (Kd menthol / Kd labelled analog) (TRPM8 F839A): 0.34
- Omega(X1/X2) (TRPM8 F839A; menthol vs labelled analog): 4.45
- Coupling Energy (TRPM8 F839A; [3]): 1.49 kT
- Ratio X2 (Kd menthol / Kd labelled analog) (TRPM8 L843V): 1.21
- Omega(X1/X2) (TRPM8 L843V; menthol vs labelled analog): 1.27
- Coupling Energy (TRPM8 L843V; [3]): 0.24 kT
- L (equilibrium constant between closed and open states upon ligand binding), Ave (TRPM8 I846V): 5.486
- Ratio X2 (Kd menthol / Kd labelled analog) (TRPM8 I846V): 0.0226
- concentration–response curve value, ave (TRPM8 I846V; 100 microM): 0.2999
- concentration–response curve value, single recording (TRPM8 I846V; 100 microM): 0.4 and 0.341 and 0.2563 and 0.2026
- concentration–response curve value, ave (TRPM8 I846V; 500 microM): 0.4287
- concentration–response curve value, single recording (TRPM8 I846V; 500 microM): 0.5097 and 0.4021 and 0.4664 and 0.3363
- concentration–response curve value, ave (TRPM8 I846V; 5000 microM): 0.6797
- concentration–response curve value, single recording (TRPM8 I846V; 5000 microM): 0.6614 and 0.7654 and 0.6405 and 0.6515
- concentration–response curve value, ave (TRPM8 I846V; 10000 microM): 0.686
- concentration–response curve value, single recording (TRPM8 I846V; 10000 microM): 0.6689 and 0.7334 and 0.6291 and 0.7125
- Kd (TRPM8 I846V; calculated from concentration–response curves, read-out: Kd, Ave): 5.29 mM
- concentration–response curve value, ave (TRPM8 I846V; concentration cell empty): 0.07916
- Omega(X1/X2) (TRPM8 I846V; menthol vs labelled analog): 67.65
- Coupling Energy (TRPM8 I846V; [3]): 4.21 kT
- Kd (TRPM8 I846V; read-out: Kd, single recording): 4.56 mM and 1.6 mM and 2.66 mM and 12.4 mM
- Ratio X2 (Kd menthol / Kd labelled analog) (TRPM8 L843I): 0.32
- Omega(X1/X2) (TRPM8 L843I; menthol vs labelled analog): 4.84
- Coupling Energy (TRPM8 L843I; [3]): 1.58 kT
- Ratio X2 (Kd menthol / Kd labelled analog) (TRPM8 Y745F): 5.57
- Omega(X1/X2) (TRPM8 Y745F; menthol vs labelled analog): 0.28
- Coupling Energy (TRPM8 Y745F; [3]): 1.29 kT
- Ratio X2 (Kd menthol / Kd labelled analog) (TRPM8 L843A): 10.91
- Omega(X1/X2) (TRPM8 L843A; menthol vs labelled analog): 0.14
- Coupling Energy (TRPM8 L843A; [3]): 1.96 kT
- L (equilibrium constant between closed and open states upon ligand binding), Ave (wild-type TRPM8 [2]): 0.1737
- L, single recording (wild-type TRPM8 [2]): 0.1532 and 0.192 and 0.1757
- Ratio X1 (Kd menthol / Kd labelled analog) (wild-type TRPM8 [2]): 1.53
- concentration–response curve value, ave (wild-type TRPM8 [2]; 100 microM): 0.03758
- concentration–response curve value, single recording (wild-type TRPM8 [2]; 100 microM): 0.03758
- concentration–response curve value, ave (wild-type TRPM8 [2]; 500 microM): 0.06444
- concentration–response curve value, single recording (wild-type TRPM8 [2]; 500 microM): 0.0748 and 0.0637 and 0.05481
- concentration–response curve value, ave (wild-type TRPM8 [2]; 1000 microM): 0.104
- concentration–response curve value, single recording (wild-type TRPM8 [2]; 1000 microM): 0.09939 and 0.1207 and 0.09185
- concentration–response curve value, ave (wild-type TRPM8 [2]; 5000 microM): 0.1359
- concentration–response curve value, single recording (wild-type TRPM8 [2]; 5000 microM): 0.1092 and 0.1503 and 0.1483
- concentration–response curve value, ave (wild-type TRPM8 [2]; 10000 microM): 0.1449
- concentration–response curve value, single recording (wild-type TRPM8 [2]; 10000 microM): 0.1156 and 0.169 and 0.1502
- Kd (wild-type TRPM8 [2]; calculated from concentration–response curves (EC50 and Po max), read-out: Kd, Ave): 0.631 mM
- Kd (wild-type TRPM8 [2]; read-out: Kd, single recording): 0.27 mM and 0.723 mM and 0.899 mM
SMILES: CC1CCCC(O)C1 (stereo not shown) [3-methylcyclohexanol]
